In patent US9649295B2, “Chemical inhibitors of soluble adenylyl cyclase (sAC)” (Cornell Research Foundation, Inc., priority 2004, dated 2017):

Assays:
[1] = test system: CREB phosphorylation in isolated nuclei; assay: CREB phosphorylation in isolated HeLa nuclei (P2), Western analysis; type: biochemical; settings: for relative intensity of phospho-CREB band normalized to basal: basal 1 U, 1 mM 8-Br cAMP, 40 mM bicarbonate alone or plus 10 μM H-89 or 1 mM 8-Br-RpcAMPs
Protocol: The resuspended pellet and 60% OptiPrep iodixanol were mixed (30% OptiPrep final) and centrifuged at 10,000 g for 20 min. The supernatant was removed and the nuclei-enriched pellet (P2) was resuspended in TM-2 buffer without detergent.
Reactions were stopped by the addition of 20 μl of SDS sample buffer (CREB phosphorylation) or by being placed into a 100° C. heat block for 3 min (adenylyl cyclase).
(§1) For whole cell and isolated nuclei CREB phosphorylation assays, equal cell or nuclear equivalents were separated under reducing conditions using a 10% SDS-PAGE, transferred to a PVDF membrane, and probed for CREB (rabbit polyclonal antiserum; Chemicon, Temecula, Calif.) and phosphorylated CREB (rabbit polyclonal antiserum; Upstate Biotechnology, Temecula, Calif.). HRP-conjugated secondary antibodies were used, and bands were visualized using ECL. Image analysis software (model Fluorchem 8800; Alpha Innotech, San Leandro, Calif.) was used to quantitate Western results. Intensities of phospho-CREB bands were normalized to total CREB.

[2] = test system: CREB phosphorylation; assay: CREB phosphorylation in COS7 cells; type: cell-based; settings: 10 μM H89 pretreatment 10 min
Protocol: All cell lines were grown in DME (44 mM sodium bicarbonate) supplemented with 10% FBS. Where indicated, cells were transfected using Lipofectamine 2000 (Invitrogen, Carlsbad, Calif.) as per the manufacturer's instructions. Cells were incubated with DNA for 5 h in OPTI-MEM (Invitrogen), and then switched to normal media. Bicarbonate starvation was conducted by changing media to bicarbonate-free DME (44 mM Hepes) supplemented with 10% FBS for at least 1 h at 37° C. under ambient air conditions. Bicarbonate stimulation consisted of returning cells to normal bicarbonate-containing media and placing them in a 5% CO2 incubator. For PGE2 or forskolin stimulation, cells were grown in normal media under 5% CO2. Stimulation was accomplished by replacing media with normal media containing 1 μM PGE2 or 10 μM forskolin. […]
For phospho-CREB immunolocalization, cells or nuclei were fixed in 4% PFA for 30 min, permeabilized in 0.1% Triton X-100 for 15 min, blocked for at least 1 h in 3% BSA, and immunostained using phospho-CREB polyclonal antisera (1:500; Cell Signaling Technologies) overnight at 4° C. […] Fluorescent images were recorded by a digital camera (Hamamatsu, Bridgewater, N.J.) connected to an inverted epifluorescent microscope (Nikon, Melville, N.Y.). […] Phospho-CREB-positive nuclei were quantified in multiple fields from each stained slide by a blinded experimenter. […]

[3] = molecular target: catalytic portion of the sAC-like adenylyl cyclase from Candida albicans (fragment JR3) (Candida albicans, UniProt A0A1D8PR83); assay: biochemical; settings: read-out: EC50 for stimulation of adenylyl cyclase activity of JR3
Chain of catalytic portion of the sAC-like adenylyl cyclase from Candida albicans (fragment JR3) (A0A1D8PR83 entry or part of it): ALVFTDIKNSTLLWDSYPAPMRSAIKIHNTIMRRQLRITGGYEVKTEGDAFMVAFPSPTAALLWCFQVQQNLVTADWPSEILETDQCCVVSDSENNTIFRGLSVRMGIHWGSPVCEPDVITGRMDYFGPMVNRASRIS
Text: . FIG. 17A illustrates the bicarbonate dependence of the JR3 fragment; […];

[4] = test system: CREB phosphorylation; assay: time course of CREB phosphorylation in Huh7 cells; type: cell-based, human; settings: 44 mM bicarbonate DME, 1 μM PGE2
Protocol: FIGS. 2A-B show the time course of CREB phosphorylation by sAC and tmAC. Huh7 cells were starved for 1 h for bicarbonate and CO2 and incubated in 44 mM of normal, bicarbonate-containing DME in 5% CO2 for the time indicated (FIG. 2A) or kept in normal media and treated with 1 μM PGE2 for the time indicated (FIG. 2B). Top panels in FIGS. 2A-B show Western blots using anti-phospho-CREB antisera with phosphorylated CREB (P-CREB) protein indicated; the bottom panels show Western blot using CREB-specific antisera with total CREB (CREB) protein indicated. Shown below the Western blots in FIGS. 2A-B are graphical representations of the intensities of phospho-CREB relative to CREB normalized to the 0 min time point (first lane).
All cell lines were grown in DME (44 mM sodium bicarbonate) supplemented with 10% FBS. […]
as §1, with “HRP-conjugated secondary antibodies were used, and bands were visualized using ECL.” left out, “Intensities of phospho-CREB bands were normalized to total CREB.” left out

[5] = test system: CREB phosphorylation in isolated nuclei; assay: phospho-CREB immunocytochemistry of isolated nuclei; type: biochemical; settings: 10 min; 40 mM sodium bicarbonate, 1 mM 8-Br cAMP, 10 μM forskolin
Protocol: Cell Signaling Technologies) overnight at 4° C. Staining was visualized by incubation with goat anti-rabbit Alexa Fluor 488 (Molecular Probes) for 1 h at room temperature, treated with DAPI for 5 min, and washed and mounted with gelvatol/DABCO (Sigma-Aldrich). Fluorescent images were recorded by a digital camera (Hamamatsu, Bridgewater, N.J.) connected to an inverted epifluorescent microscope (Nikon, Melville, N.Y.). Images were taken at the same exposure time and gain, and all photographic manipulations were performed equally. Phospho-CREB-positive nuclei were quantified in multiple fields from each stained slide by a blinded experimenter. […] Nuclei were also treated with DAPI to differentiate intact nuclei from membrane ghosts. DAPI-positive nuclei were scored for phosho-CREB immunofluorescence. Nuclei with detectable staining (FIG. 6A, NaHCO3) were considered positive for CREB phosphorylation, whereas nuclei with no detectable staining (FIG. 6A, Basal) were counted as negative. Multiple microscopic fields were photographed for each condition, and data was combined from three to five separate experiments.

Row | SMILES | relative intensity of phospho-CREB band normalized to basal [1] [U] | reduction of CREB phosphorylation induced by bicarbonate ([1]; isolated nuclei, 40 mM bicarbonate) [%] | effect on forskolin- or bicarbonate-induced phospho-CREB immunostaining [2] | EC50 [3] [µM] | increase in CREB phosphorylation ([1]; isolated nuclei, Western) [fold] | time to detectable increase in phospho-CREB [4] [min] | percentage of phospho-CREB-positive nuclei relative to basal [5]
1 | O=S(=O)(NCCNC/C=C/c1ccc(Br)cc1)c1cccc2cnccc12 [H89] | 13 | 50 | inhibited | – | – | – | –
2 | O=C([O-])O.[Na+] [bicarbonate, sodium bicarbonate] | 27 | – | – | ~200 | 27 | ≤ 2 | at least a twofold rise
